Test results: ChEMBL document CHEMBL3621073, “Bile acid amphiphiles with tunable head groups as highly selective antitubercular agents” (Medchemcomm, 2014)
Values after ≈ are worked out from the molar mass of the structure shown. Active and inactive are the calls of the source. The calls are words filed in the database; no cut-off is given here.

What was measured:
[1] = system: Mycobacterium tuberculosis; assay: Antimycobacterial activity against Mycobacterium bovis BCG assessed as effect on membrane topology by atomic force microscopic analysis; type: functional, organism-based; details: variant bovis BCG
[2] = system: Mycobacterium tuberculosis; assay: Antimycobacterial activity against Mycobacterium bovis BCG after 14 days by inverted microscopic analysis; type: functional; details: variant bovis BCG, 336 h
[3] = system: Mycobacterium tuberculosis; assay: Antimycobacterial activity against Mycobacterium bovis BCG assessed as effect on membrane morphology by atomic force microscopic analysis; type: functional, organism-based; details: variant bovis BCG
[4] = system: Mycobacterium tuberculosis; assay: Antimycobacterial activity against Mycobacterium bovis BCG assessed as rugged membrane surface by atomic force microscopic analysis; type: functional, organism-based; details: variant bovis BCG
[5] = system: Mycobacterium tuberculosis; assay: Antimycobacterial activity against Mycobacterium bovis BCG after 14 days by inverted microscopic analysis in presence of plasma; type: functional; details: variant bovis BCG, 336 h
[6] = system: Mycobacterium tuberculosis; assay: Antimycobacterial activity against Mycobacterium bovis BCG assessed as pore and grove formation by atomic force microscopic analysis; type: functional, organism-based; details: variant bovis BCG

Row | SMILES | MIC99 [2] [µM] | also measured
1 | COC(=O)CC[C@@H](C)[C@H]1CC[C@H]2[C@@H]3[C@H](OC(=O)CN)C[C@@H]4C[C@H](OC(=O)CN)CC[C@]4(C)[C@H]3C[C@H](OC(=O)CN)[C@]12C.Cl.Cl.Cl | 18.8 | Activity [1]: inactive; Activity [3]: inactive
2 | COC(=O)CC[C@@H](C)[C@H]1CC[C@H]2[C@@H]3CC[C@@H]4C[C@H](OC(=O)C[n+]5ccc(N(C)C)cc5)CC[C@]4(C)[C@H]3C[C@H](OC(=O)C[n+]3ccc(N(C)C)cc3)[C@]12C | 2.34 | 
3 | COC(=O)CC[C@@H](C)[C@H]1CC[C@H]2[C@@H]3[C@H](OC(=O)C[N+]4(C)CCCCC4)C[C@@H]4C[C@H](OC(=O)C[N+]5(C)CCCCC5)CC[C@]4(C)[C@H]3CC[C@]12C | 6.25 | 
4 | COC(=O)CC[C@@H](C)[C@H]1CC[C@H]2[C@@H]3CC[C@@H]4C[C@H](OC(=O)C[N+]5(C)CCCCC5)CC[C@]4(C)[C@H]3CC[C@]12C | 50 | 
5 | COC(=O)CC[C@@H](C)[C@H]1CC[C@H]2[C@@H]3CC[C@@H]4C[C@H](OC(=O)CN)CC[C@]4(C)[C@H]3C[C@H](OC(=O)CN)[C@]12C | 25 (≈ 13 µg/mL) | 
6 | COC(=O)CC[C@@H](C)[C@H]1CC[C@H]2[C@@H]3CC[C@@H]4C[C@H](OC(=O)CN)CC[C@]4(C)[C@H]3CC[C@]12C | > 50 | 
7 | COC(=O)CC[C@@H](C)[C@H]1CC[C@H]2[C@@H]3CC[C@@H]4C[C@H](OC(=O)C[N+]5(C)CCCCC5)CC[C@]4(C)[C@H]3C[C@H](OC(=O)C[N+]3(C)CCCCC3)[C@]12C | 3.12 | 
8 | COC(=O)CC[C@@H](C)[C@H]1CC[C@H]2[C@@H]3[C@H](OC(=O)C[n+]4ccccc4)C[C@@H]4C[C@H](OC(=O)C[n+]5ccccc5)CC[C@]4(C)[C@H]3CC[C@]12C | 9.38 | 
9 | COC(=O)CC[C@@H](C)[C@H]1CC[C@H]2[C@@H]3CC[C@@H]4C[C@H](OC(=O)C[n+]5ccccc5)CC[C@]4(C)[C@H]3CC[C@]12C | > 50 | 
10 | C[C@H]1COc2c(N3CCN(C)CC3)c(F)cc3c(=O)c(C(=O)O)cn1c23 [LEVOFLOXACIN] | 0.39 (≈ 0.141 µg/mL) | 
11 | COC(=O)CC[C@@H](C)[C@H]1CC[C@H]2[C@@H]3[C@H](OC(=O)CN)C[C@@H]4C[C@H](OC(=O)CN)CC[C@]4(C)[C@H]3CC[C@]12C | 37.5 (≈ 19.5 µg/mL) | 
12 | COC(=O)CC[C@@H](C)[C@H]1CC[C@H]2[C@@H]3[C@H](OC(=O)C[n+]4ccc(N(C)C)cc4)C[C@@H]4C[C@H](OC(=O)C[n+]5ccc(N(C)C)cc5)CC[C@]4(C)[C@H]3C[C@H](OC(=O)C[n+]3ccc(N(C)C)cc3)[C@]12C.[Cl-].[Cl-].[Cl-] | 3.12 | Activity [4]: Active; MIC99 [5]: 6.25 µM; Activity [6]: Active
13 | COC(=O)CC[C@@H](C)[C@H]1CC[C@H]2[C@@H]3CC[C@@H]4C[C@H](OC(=O)C[n+]5ccccc5)CC[C@]4(C)[C@H]3C[C@H](OC(=O)C[n+]3ccccc3)[C@]12C | 6.25 | 
14 | COC(=O)CC[C@@H](C)[C@H]1CC[C@H]2[C@@H]3[C@H](OC(=O)C[N+](C)(C)C)C[C@@H]4C[C@H](OC(=O)C[N+](C)(C)C)CC[C@]4(C)[C@H]3CC[C@]12C | 4.68 | 
15 | COC(=O)CC[C@@H](C)[C@H]1CC[C@H]2[C@@H]3[C@H](OC(=O)C[n+]4ccccc4)C[C@@H]4C[C@H](OC(=O)C[n+]5ccccc5)CC[C@]4(C)[C@H]3C[C@H](OC(=O)C[n+]3ccccc3)[C@]12C.[Cl-].[Cl-].[Cl-] | 6.25 | 
16 | COC(=O)CC[C@@H](C)[C@H]1CC[C@H]2[C@@H]3CC[C@@H]4C[C@H](OC(=O)C[n+]5ccc(N(C)C)cc5)CC[C@]4(C)[C@H]3CC[C@]12C | 50 | 
17 | COC(=O)CC[C@@H](C)[C@H]1CC[C@H]2[C@@H]3CC[C@@H]4C[C@H](OC(=O)C[N+](C)(C)C)CC[C@]4(C)[C@H]3CC[C@]12C | 50 | 
18 | COC(=O)CC[C@@H](C)[C@H]1CC[C@H]2[C@@H]3[C@H](OC(=O)C[N+]4(C)CCCCC4)C[C@@H]4C[C@H](OC(=O)C[N+]5(C)CCCCC5)CC[C@]4(C)[C@H]3C[C@H](OC(=O)C[N+]3(C)CCCCC3)[C@]12C.[Cl-].[Cl-].[Cl-] | 6.25 | 
19 | COC(=O)CC[C@@H](C)[C@H]1CC[C@H]2[C@@H]3[C@H](OC(=O)C[N+](C)(C)C)C[C@@H]4C[C@H](OC(=O)C[N+](C)(C)C)CC[C@]4(C)[C@H]3C[C@H](OC(=O)C[N+](C)(C)C)[C@]12C.[Cl-].[Cl-].[Cl-] | 6.25 | 
20 | COC(=O)CC[C@@H](C)[C@H]1CC[C@H]2[C@@H]3[C@H](OC(=O)C[n+]4ccc(N(C)C)cc4)C[C@@H]4C[C@H](OC(=O)C[n+]5ccc(N(C)C)cc5)CC[C@]4(C)[C@H]3CC[C@]12C | 3.12 | 
21 | NNC(=O)c1ccncc1 [ISONIAZID] | 0.78 (≈ 0.107 µg/mL) | 
22 | COC(=O)CC[C@@H](C)[C@H]1CC[C@H]2[C@@H]3CC[C@@H]4C[C@H](OC(=O)C[N+](C)(C)C)CC[C@]4(C)[C@H]3C[C@H](OC(=O)C[N+](C)(C)C)[C@]12C | 25 | 
